A value given as a limit tells only on which side of the number the result lay.

As usually defined, the inhibition is the relative decrease from the control value, in per cent. A word on the IC50: it is the concentration at which inhibition is half-maximal.

One data set deals with T1, hERG (IKr) (Homo sapiens, UniProt Q12809).
T1 construct: expressed in transfected cells; host or cells: HEK293 cells
In words: hERG test. It is filed as cell-based. The note with it: pH 7.4, HEK293 cells expressing hERG channel, whole cell patch clamp, concentration not given, read-out: % inhibition relative to the tail peak current (IKr). The source says:
For the purpose of assessing risk of an electrocardiogram QT interval prolongation, effects on delayed rectifier K+ current (IKr), which plays an important role in the ventricular repolarization process of the compound of the present invention, is studied using HEK293 cells expressing human ether-a-go-go related gene (hERG) channel.
After a cell was retained at a membrane potential of −80 mV by whole cell patch clamp method using an automated patch clamp system (PatchXpress 7000A, Axon Instruments Inc.), IKr induced by depolarization pulse stimulation at +40 mV for 2 seconds and, further, repolarization pulse stimulation at −50 mV for 2 seconds was recorded. […] From the recording IKr, an absolute value of the tail peak current was measured based on the current value at the resting membrane potential using analysis software (DataXpress ver. 1, Molecular Devices Corporation). Further, the % inhibition relative to the tail peak current before application of the test compound was calculated, and compared with the vehicle-applied group (0.1% dimethyl sulfoxide solution) to assess influence of the test compound on IKr.
On the technique in general: The hERG channel carries a current that helps repolarise heart muscle cells.

Data set [1] deals with Neuroblastoma SH—SY5Y cells (SH/APPwt) with human wild-type β-APP excessively expressed. In words: Measurement of β-amyloid (Aβ) production inhibitory effect in cell. Format: cell-based. As to conditions: 24 hours incubation, Amyloid β 1-40 by HTRF, read-out: amount needed to inhibit Aβ production by 50% (IC50). The method, then: Neuroblastoma SH—SY5Y cells (SH/APPwt) with human wild-type p-APP excessively expressed therein were prepared at 8×10^5 cells/mL, and 150 μl portions thereof were inoculated into each well of a 96-well culture plate (Falcon). The cells were cultured for 2 hours at 37° C. in a 5% gaseous carbon dioxide incubator. Then, a solution which had been preliminarily prepared by adding and suspending the test compound (DMSO (dimethyl sulfoxide) solution) so as to be 2 μl/50 μl medium was added to the cell sap. Namely, the final DMSO concentration was 1%, and the amount of the cell culture was 200 μl. After the incubation was performed for 24 hours from the addition of the test compound, 100 μl of the culture supernatant was collected from each fraction. The amount of the Aβ in each fraction was measured.
The Aβ amount was measured as follows. 10 μl of a homogeneous time resolved fluorescence (HTRF) measurement reagent (Amyloid β 1-40 peptide; IBA Molecular Holding, S. A.) and 10 μl of the culture supernatant were put into a 384-well half area microplate (black microplate, Costar) and mixed with each other, and then left standing overnight at 4° C. while the light was shielded. Then, the fluorescence intensity (excitation wavelength: 337 nm, measurement wavelength: 620 nm and 665 nm) was measured with a Wallac 1420 multilabel counter (Perkin Elmer life sciences). The Aβ amount was determined from the count rate at each measurement wavelength (10000× Count 665/Count 620), and the amount needed to inhibit Aβ production by 50% (IC50) was calculated from at least six different dosages.
(In TR-FRET formats the signal depends on donor and acceptor labels being close together.)

Data set [2] in a line: Metabolism stability test. It is filed as in vitro ADME. The note with it: human liver microsomes 0.5 mg protein/mL, 1 mmol/L NADPH, 37° C., 30 minutes; 0 minute = 100%. The method, then:
Using commercially available pooled human hepatic microsomes, a test compound is reacted for a constant time, a remaining rate is calculated by comparing a reacted sample and an unreacted sample, thereby, a degree of metabolism in liver is assessed.
A reaction is performed (oxidative reaction) at 37° C. for 0 minute or 30 minutes in the presence of 1 mmol/L NADPH in 0.2 mL of a buffer (50 mmol/L Tris-HCl pH 7.4, 150 mmol/L potassium chloride, 10 mmol/L magnesium chloride) containing 0.5 mg protein/mL of human liver microsomes. After the reaction, 50 μL of the reaction solution is added to 100 μL of a methanol/acetonitrile=1/1 (v/v), mixed and centrifuged at 3000 rpm for 15 minutes. The test compound in the supernatant is quantified by LC/MS/MS, and a remaining amount of the test compound after the reaction is calculated, letting a compound amount at 0 minute reaction time to be 100%.

T1 sequence (Q12809 whole entry): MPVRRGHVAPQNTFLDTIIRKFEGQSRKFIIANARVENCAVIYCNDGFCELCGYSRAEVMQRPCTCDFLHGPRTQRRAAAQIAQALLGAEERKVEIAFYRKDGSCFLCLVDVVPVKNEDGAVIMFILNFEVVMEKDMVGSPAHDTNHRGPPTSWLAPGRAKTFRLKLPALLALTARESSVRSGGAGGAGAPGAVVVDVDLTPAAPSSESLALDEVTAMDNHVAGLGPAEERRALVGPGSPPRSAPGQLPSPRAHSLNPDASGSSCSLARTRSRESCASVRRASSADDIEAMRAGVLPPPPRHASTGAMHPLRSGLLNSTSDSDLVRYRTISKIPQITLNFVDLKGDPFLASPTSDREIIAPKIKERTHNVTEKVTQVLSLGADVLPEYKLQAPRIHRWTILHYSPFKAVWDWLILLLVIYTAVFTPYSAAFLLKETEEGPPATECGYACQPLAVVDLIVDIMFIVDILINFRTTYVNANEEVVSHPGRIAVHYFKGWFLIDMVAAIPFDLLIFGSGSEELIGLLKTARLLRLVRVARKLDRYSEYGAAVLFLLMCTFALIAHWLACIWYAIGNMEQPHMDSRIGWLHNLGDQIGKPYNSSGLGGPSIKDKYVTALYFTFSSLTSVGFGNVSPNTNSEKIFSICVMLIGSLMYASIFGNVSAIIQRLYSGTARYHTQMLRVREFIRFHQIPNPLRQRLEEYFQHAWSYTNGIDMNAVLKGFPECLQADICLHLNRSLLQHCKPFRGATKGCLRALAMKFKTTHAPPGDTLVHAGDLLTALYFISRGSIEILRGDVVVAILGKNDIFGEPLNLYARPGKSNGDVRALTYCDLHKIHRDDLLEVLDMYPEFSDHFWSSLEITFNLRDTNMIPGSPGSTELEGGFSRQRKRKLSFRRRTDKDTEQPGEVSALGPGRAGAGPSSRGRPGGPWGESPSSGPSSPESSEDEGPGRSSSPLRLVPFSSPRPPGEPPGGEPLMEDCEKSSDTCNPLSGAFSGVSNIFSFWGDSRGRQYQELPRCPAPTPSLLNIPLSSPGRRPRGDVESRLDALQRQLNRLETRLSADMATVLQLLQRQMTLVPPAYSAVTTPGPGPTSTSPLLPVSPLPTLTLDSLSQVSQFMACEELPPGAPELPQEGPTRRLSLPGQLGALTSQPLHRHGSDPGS

Turning to `NC1=NC2(c3cc(-c4cncnc4)ccc3F)CCCC2CO1` (racemic) [Compound I-39], on hERG (IKr), the inhibition at 10 min turned out to be 19.3%. Also, the IC50 in data set [1] was at most 1 µM.
With `NC1=NC2(c3cc(-c4cccnc4F)ccc3F)COCC2CO1` (racemic) [Compound I-42], the IC50 in data set [1] is at most 1 µM. Besides, the “remaining amount of the test compound after the reaction” value in data set [2] was 94.7%.

For the origin of these results see patent US20120245155A1, “FUSED HETEROCYCLIC COMPOUND HAVING AMINO GROUP” (Shionogi & Co., Ltd., priority 2009, published 2012).
